Results as given in patent US7915235B2, “High affinity ligands bind to clostridium difficile toxin A” (priority 2006, dated 2011).
Where “and” joins values, the source holds several entries; their conditions need not be identical. Identical values can stand only once.

Columns and labels:
[1] = target: Clostridium difficile toxin A (Clostridioides difficile, UniProt P16154); settings: toxin A applied at 200 micrograms/ml; detected with PCG4 antibody and goat anti-mouse Alexa488
[2] = system: C. difficile-associated diarrhea (CDAD); settings: oral metronidazole 500 mg TID; oral vancomycin 125 mg every 6 h; cited from earlier work
[3] = system: C. difficile associated diarrhea; settings: cited from earlier work

With “Galb1-3(Fuca1-4)GlcNAcb1-3Galb1-4GlcNAcb-” the “fluorescence (FL) signal” value [1] was 29098.
With GalNAca1-3(Fuca1-2)Galb1-4GlcNAcb- the “fluorescence (FL) signal” value [1] was 188.
With `CC(=O)N[C@@H]1[C@@H](O[C@@H]2O[C@@H](C)[C@@H](O)[C@@H](O)[C@@H]2O)[C@H](O[C@@H]2O[C@H](CO)[C@H](O)[C@H](O)[C@H]2O)[C@@H](CO)O[C@H]1O` [Lewis×, Galb1-4[Fuca1-3]GlcNAcb] the “fluorescence (FL) signal” value [1] was 122 and 218.
With “NeuAca2-3Galb1-3(Fuca1-4)GlcNAcb1-3Galb1-4(Fuca1-3)GlcNAcb-” the “fluorescence (FL) signal” value [1] was 14911.
In the case of `Cc1ncc([N+](=O)[O-])n1CCO` [metronidazole], the response rates [2] is listed as ~90%.
In the case of “NeuAca2-3Galb1-3GlcNAcb1-3Galb1-4GlcNAcb-”, the “fluorescence (FL) signal” value [1] is reported as 4435.
With Gala1-3Galb1-4(Fuca1-3)GlcNAcb- the “fluorescence (FL) signal” value [1] was 1814.
For `CC(=O)N[C@@H]1[C@@H](O)[C@H](O[C@@H]2O[C@H](CO)[C@H](O)[C@H](O[C@@H]3O[C@H](CO)[C@H](O)[C@H](O)[C@H]3O)[C@H]2O)[C@@H](CO)O[C@H]1O` [Galb1-3Galb1-4GlcNAcb], the “fluorescence (FL) signal” value [1] was 172.
In the case of “Gala1-3(Fuca1-2)Galb1-4(Fuca1-3)GlcNAcb-”, the “fluorescence (FL) signal” value [1] is reported as 789.
For `CN[C@H](CC(C)C)C(=O)N[C@H]1C(=O)N[C@@H](CC(N)=O)C(=O)N[C@H]2C(=O)N[C@H]3C(=O)N[C@H](C(=O)N[C@H](C(=O)O)c4cc(O)cc(O)c4-c4cc3ccc4O)[C@H](O)c3ccc(c(Cl)c3)Oc3cc2cc(c3O[C@@H]2O[C@H](CO)[C@@H](O)[C@H](O)[C@H]2O[C@H]2C[C@](C)(N)[C@H](O)[C@H](C)O2)Oc2ccc(cc2Cl)[C@H]1O` [vancomycin], the definitive recurrence rate ([3]; per protocol population with recurrent CDAD at enrollment, vancomycin or 6 g tolevamer) is given as 27%, the “definitive recurrence rate confirmed by a positive toxin assay” value ([3]; per protocol population, 125 mg vancomycin QID or 6 g tolevamer) is given as 19% and the response rates [2] is given as ~90%.
For “GalNAca1-3(Fuca1-2)Galb1-4(Fuca1-3)GlcNAcb-”, the “fluorescence (FL) signal” value [1] was 327.
